The numbers were not newly measured in patent publication US9090606B2, “Compounds” (CHIESI FARMACEUTICI S.p.A., priority 2012, dated 2015), which cites them from elsewhere.

For data set [1], the system named is COPD patients.
Data set [2] deals with smoking model of COPD in mice.
Setting [3] is: patients with severe disease, frequent exacerbations and mucus hypersecretion.

On to `O=C(Nc1c(Cl)cncc1Cl)c1ccc(OC(F)F)c(OCC2CC2)c1` [roflumilast], for which the “reduction of the numbers of neutrophils in sputum” value in data set [1] (COPD patients, oral, given over 4 weeks) was 36%. In addition, in data set [1] (setting [3]), the “improvement of FEV 1” value was “approximately 50 mL” and the reduction of exacerbation entry is listed as “about 15%”. The “effect on lung inflammation and emphysema” value in data set [2] was “inhibits lung inflammation and emphysema”.
